Laboratory results published in PubChem BioAssay (NCI).
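The compound was tested at five concentrations on cells cultured in 96-well plates, with a 48-hour exposure period. TGI: total growth inhibition.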

What was measured:
Assay in all cases: NCI anticancer screen, dose series, 48 h
[1] = test system: A549 NSCLC
[2] = test system: BT-549 breast
[3] = test system: EKVX NSCLC
[4] = test system: HCT-15 colon
[5] = test system: HS 578T breast
[6] = test system: LOX IMVI melanoma
[7] = test system: MDA-MB-231 breast
[8] = test system: NCI-H226 lung
[9] = test system: NCI/ADR-RES ovarian
[10] = test system: OVCAR-5 ovarian
[11] = test system: SF-295 CNS
[12] = test system: SF-539 CNS
[13] = test system: SN12C renal
[14] = test system: TK-10 renal
[15] = test system: UACC-257 melanoma
[16] = test system: UACC-62 melanoma

| Compound | TGI [1] [µM] | TGI [2] [µM] | TGI [3] [µM] | TGI [4] [µM] | TGI [5] [µM] | TGI [6] [µM] | TGI [7] [µM] | TGI [8] [µM] | TGI [9] [µM] | TGI [10] [µM] | TGI [11] [µM] | TGI [12] [µM] | TGI [13] [µM] | TGI [14] [µM] | TGI [15] [µM] | TGI [16] [µM] |
| --- | --- | --- | --- | --- | --- | --- | --- | --- | --- | --- | --- | --- | --- | --- | --- | --- |
| FC(F)(F)c1ccc2c(-c3cc[nH]c3)ccnc2c1 | 75 | 68.9 | > 100 | > 100 | 56.4 | 48.9 | > 100 | > 100 | > 100 | 87.4 | 84.1 | > 100 | > 100 | 70.1 | > 100 | > 100 |
| Cc1c(-c2ccccc2)c(C#N)c2nnn(-c3ccc(Cl)cc3)c(=O)n12 | > 100 | > 100 | > 100 | > 100 | > 100 | > 100 | > 100 | > 100 | > 100 | > 100 | > 100 | > 100 | > 100 | > 100 | > 100 | > 100 |
| Cn1c(-c2ccccc2)cc(-c2ccc3c(c2)OCO3)c1-c1ccsc1 | > 100 | > 100 | > 100 | > 100 | > 100 | > 100 | > 100 | > 100 | > 100 | > 100 | > 100 | > 100 | > 100 | > 100 | > 100 | > 100 |
| O=C(CCN1CCCCC1)Nc1ccc2c(c1)C(=O)c1ccc(NC(=O)CCN3CCCCC3)cc1C2=O | 10.3 | 27.8 | 30.2 | 7.63 | 26.2 | 3.43 | 3.6 | 29.6 | 25.8 | 31.4 | 10.4 | 7.13 | 18 | 21.2 | 30.5 | 34.7 |
| Cc1cc(C)c(/C=C2\C(=O)Nc3ccccc32)[nH]1 | > 100 | > 100 | > 100 | > 100 | > 100 | > 100 | > 100 | > 100 | > 100 | > 100 | > 100 | > 100 | > 100 | > 100 | > 100 | > 100 |
| Cc1cccc(N=Nc2c(C)nn(C(=O)CC(=O)Nc3ccc(Cl)cc3)c2C)c1 | > 100 | > 100 | 96.9 | > 100 | > 100 | > 100 | > 100 | > 100 | > 100 | > 100 | > 100 | > 100 | > 100 | > 100 | > 100 | > 100 |
| CC(=O)Nc1ccc(S(=O)(=O)c2nnc(NC(C)=O)s2)cc1 | > 100 | > 100 | > 100 | > 100 | > 100 | > 100 | > 100 | > 100 | > 100 | > 100 | > 100 | > 100 | > 100 | > 100 | > 100 | > 100 |
| Cc1cc(C)c2c(=O)n(CC(O)CN(Cc3ccccc3)CC(O)Cn3sc4nc(C)cc(C)c4c3=O)sc2n1 (stereo not drawn) | 40.7 | 38.3 | 44.5 | 34.4 | 40.4 | 33.9 | 31.6 | 33.5 | 67.2 | 36.4 | 61.9 | 32 | 32.7 | 31.5 | 31.7 | 30.6 |
